The source of these data is patent US20220046923A1, “HERBICIDAL CINNOLINIUM COMPOUNDS” (SYNGENTA CROP PROTECTION AG, priority 2018, published 2022).

Holding throughout (experiment): Post-emergence efficacy, glasshouse spray test
Holding throughout (assay type): in vivo

The subject of one assay is Setaria faberi (SETFA). Conditions: Setaria faberi, post-emergence, 312 h, evaluated after 13 days, read-out: Control of weed species SETFA after post-emergence application (100=total damage to plant; 0=no damage to plant); for pest or weed control at 1000 g/ha: application rate 1000 g/Ha. A digest of the protocol: (§1)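 Plants grown 14 days in glasshouse (24/16 °C day/night, 14 h light, 65% humidity), then sprayed post-emergence with formula (I) formulated in IF50 and diluted in 0.25% or 1% Empicol ESC70 + 1% ammonium sulphate. Damage scored visually 13 days after spraying (0 = none, 100 = total).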

Assay [1] deals with Ipomoea hederacea (IPOHE). The note with it: Ipomoea hederacea, post-emergence, 312 h, evaluated after 13 days, read-out: Control of weed species IPOHE after post-emergence application (100=total damage to plant; 0=no damage to plant); for pest or weed control at 1000 g/ha: application rate 1000 g/Ha. A digest of the protocol:
as §1

The subject of assay [2] is Euphorbia heterophylla (EPHHL). The note with it: Euphorbia heterophylla, post-emergence, 312 h, evaluated after 13 days, read-out: Control of weed species EPHHL after post-emergence application (100=total damage to plant; 0=no damage to plant); for pest or weed control at 1000 g/ha: application rate 1000 g/Ha. Summed up: as §1
In the next assay the test system is Lolium perenne (LOLPE). Conditions: Lolium perenne, post-emergence, 312 h, evaluated after 13 days, read-out: Control of weed species LOLPE after post-emergence application (100=total damage to plant; 0=no damage to plant); for pest or weed control at 1000 g/ha: application rate 1000 g/Ha. A digest of the protocol:
as §1

The test system of assay [3] is Echinochloa crus-galli (ECHCG). Conditions: Echinochloa crus-galli, post-emergence, 312 h, evaluated after 13 days, read-out: Control of weed species ECHCG after post-emergence application (100=total damage to plant; 0=no damage to plant); for pest or weed control at 1000 g/ha: application rate 1000 g/Ha. A digest of the protocol: as §1
The subject of assay [4] is Digitaria sanguinalis (DIGSA). The note with it: Digitaria sanguinalis, post-emergence, 312 h, evaluated after 13 days, read-out: Control of weed species DIGSA after post-emergence application (100=total damage to plant; 0=no damage to plant); for pest or weed control at 1000 g/ha: application rate 1000 g/Ha. A digest of the protocol:
as §1

Assay [5] deals with Chenopodium album (CHEAL). The note with it: Chenopodium album, post-emergence, 312 h, evaluated after 13 days, read-out: Control of weed species CHEAL after post-emergence application (100=total damage to plant; 0=no damage to plant); for pest or weed control at 1000 g/ha: application rate 1000 g/Ha. Summed up:
as §1

A further assay deals with Eleusine indica (ELEIN). Conditions: Eleusine indica, post-emergence, 312 h, evaluated after 13 days, read-out: Control of weed species ELEIN after post-emergence application (100=total damage to plant; 0=no damage to plant); for pest or weed control at 1000 g/ha: application rate 1000 g/Ha. A digest of the protocol:
as §1

In assay [6] the test system is Amaranthus palmeri (AMAPA). Conditions: Amaranthus palmeri, post-emergence, 312 h, evaluated after 13 days, read-out: Control of weed species AMAPA after post-emergence application (100=total damage to plant; 0=no damage to plant); for pest or weed control at 1000 g/ha: application rate 1000 g/Ha. Summed up: as §1

SMILES strings stand for the structures. Where a name gives a salt, the structure may show the parent alone.

On to `O=S(=O)([O-])CC[n+]1cc(-c2ccccc2)c2ccccc2n1` [Compound A51], for which the pest or weed control at 1000 g/ha worked out at 30% with Setaria faberi (SETFA); 30% in assay [1]; 60% in assay [2]; 10% in the assay on Lolium perenne (LOLPE); 20% in assay [3]; 40% in assay [4]. The results for the pest or weed control at 1000 g/ha (in assay [5]; in the assay with Eleusine indica (ELEIN); in [6]) were 30%, 30% and 90%, respectively.

Take `O=S(=O)([O-])CC[n+]1ccc2cccc(-c3ccccc3)c2n1` [Compound A52, 2-(8-phenylcinnolin-2-ium-2-yl)ethanesulfonate]: the pest or weed control at 1000 g/ha with Setaria faberi (SETFA) was 30%; in [1] it was 30%; in assay [2], 100%; in the assay on Lolium perenne (LOLPE), 20%; in [3] it was 20%; in assay [4], 40%. Besides, the figures for the pest or weed control at 1000 g/ha (in assay [5]; in the assay on Eleusine indica (ELEIN); in assay [6]) were 40%, 70% and 100%, respectively.

For `O=S(=O)([O-])CC[n+]1ccc2cc(-c3ccccc3)ccc2n1` [Compound A53], the pest or weed control at 500 g/ha was found to be 10% in the assay on Setaria faberi (SETFA) (application rate 500 g/Ha); 10% in assay [1] (application rate 500 g/Ha); 20% in assay [2] (application rate 500 g/Ha); 0% with Lolium perenne (LOLPE) (application rate 500 g/Ha); 0% in [3] (application rate 500 g/Ha); 10% in assay [4] (application rate 500 g/Ha). Further, the results for the pest or weed control at 500 g/ha (in [5] (application rate 500 g/Ha); with Eleusine indica (ELEIN) (application rate 500 g/Ha); in assay [6] (application rate 500 g/Ha)) were 0%, 40% and 20%, respectively.

For `CC#Cc1c[n+](CCOS(=O)(=O)[O-])nc2ccccc12` [Compound A54, 2-(4-prop-1-ynylcinnolin-2-ium-2-yl)ethyl sulfate], the pest or weed control at 1000 g/ha in the assay with Setaria faberi (SETFA) worked out at 20%; in assay [1], 10%; in assay [2], 30%; in the assay with Lolium perenne (LOLPE) it was 10%; in assay [3] it was 10%; in assay [4], 30%. For the same molecule, the pest or weed control at 1000 g/ha was found to be 40% in assay [5], 30% in the assay with Eleusine indica (ELEIN) and 30% in assay [6].

Regarding `O=C(O)c1ccccc1C[n+]1ccc2ccccc2n1` [Compound A55], the pest or weed control at 1000 g/ha in the assay with Setaria faberi (SETFA) is 0%; in assay [1], 30%; in assay [2] it was 30%; with Lolium perenne (LOLPE), 0%; in [3], 20%; in assay [4], 10%. Besides, the values for the pest or weed control at 1000 g/ha (in assay [5]; with Eleusine indica (ELEIN); in assay [6]) were 30%, 10% and 10%, respectively.

Consider `O=S(=O)(O)OCC[n+]1nc2ccccc2cc1Cl` [Compound A56], for which the pest or weed control at 1000 g/ha in the assay on Setaria faberi (SETFA) was 20%; in assay [1], 0%; in [2] it was 50%; with Lolium perenne (LOLPE) it was 0%; in [3], 10%; in [4], 20%. Besides, the pest or weed control at 1000 g/ha in [5] came out at 0%; in the assay with Eleusine indica (ELEIN), 30%; in assay [6] it was 0%.

As for `COC(=O)C[n+]1ccc2cc(C)ccc2n1` [Compound A57], the pest or weed control at 1000 g/ha in the assay with Setaria faberi (SETFA) was 30%; in [1], 20%; in assay [2], 60%; in the assay with Lolium perenne (LOLPE) it was 10%; in assay [3], 20%; in assay [4], 40%. In addition, the values for the pest or weed control at 1000 g/ha (in assay [5]; with Eleusine indica (ELEIN); in assay [6]) were 40%, 60% and 70%, respectively.

As for `COC(=O)C[n+]1ccc2cccc(C)c2n1` [Compound A58], the pest or weed control at 1000 g/ha worked out at 0% in the assay on Setaria faberi (SETFA); 10% in [1]; 20% in [2]; 0% in the assay on Lolium perenne (LOLPE); 10% in [3]; 0% in [4]. The pest or weed control at 1000 g/ha was found to be 30% in assay [5], 10% in the assay with Eleusine indica (ELEIN) and 0% in [6].

As to `Cc1cccc2cc[n+](CC(=O)O)nc12` [Compound A59], the pest or weed control at 1000 g/ha in the assay on Setaria faberi (SETFA) was found to be 20%; in assay [1], 10%; in [2], 20%; with Lolium perenne (LOLPE) it was 10%; in assay [3] it was 20%; in assay [4], 20%. Also, the pest or weed control at 1000 g/ha in [5] was 60%; in the assay with Eleusine indica (ELEIN), 10%; in [6], 30%.

As for `COC(=O)C[n+]1ccc2cc(OC)ccc2n1` [Compound A60], the pest or weed control at 1000 g/ha in the assay on Setaria faberi (SETFA) stood at 10%; in assay [1] it was 30%; in [2], 10%; with Lolium perenne (LOLPE), 10%; in [3], 20%; in assay [4] it was 30%. Besides, the values for the pest or weed control at 1000 g/ha (in assay [5]; in the assay with Eleusine indica (ELEIN); in assay [6]) were 0%, 40% and 0%, respectively.

Consider `COC(=O)CC[n+]1ccc2ccccc2n1` [Compound A61], for which the pest or weed control at 1000 g/ha in the assay on Setaria faberi (SETFA) came to 50%; in assay [1] it was 60%; in assay [2], 70%; in the assay with Lolium perenne (LOLPE), 10%; in [3] it was 60%; in assay [4], 80%. In addition, the pest or weed control at 1000 g/ha turned out to be 60% in assay [5], 90% in the assay on Eleusine indica (ELEIN) and 70% in assay [6].

Consider `COC(=O)C[n+]1cc(C)c2ccccc2n1` [Compound A62], for which the pest or weed control at 1000 g/ha with Setaria faberi (SETFA) came out at 30%; in [1] it was 50%; in [2], 40%; with Lolium perenne (LOLPE), 40%; in assay [3] it was 30%; in assay [4], 50%. The pest or weed control at 1000 g/ha in assay [5] is 60%; with Eleusine indica (ELEIN), 70%; in [6], 70%.
